# According to PMC10604565, “Modified CLEC3A-Derived Antimicrobial Peptides Lead to Enhanced Antimicrobial Activity against Drug-Resistant Bacteria” (Antibiotics, 2023):
# Like-named read-outs stand apart in the source and are kept apart here. Non-standard residues stand in square brackets, D forms with d. Residues, ends and D or L forms follow the SMILES beside them. No end group written: not given here.
# Experiments:
# MRSA = type: cell-based, methicillin-resistant Staphylococcus aureus (MRSA-43300)
# Description: (§1) Pseudomonas aeruginosa (Psae-27853), Staphylococcus aureus (ATCC-29213), and methicillin-resistant Staphylococcus aureus (MRSA-43300) were used. Bacteria were cultivated in tryptic soy broth (TSB) (Merck, Darmstadt, Germany) at 37 °C and 225rpm or on TSB–agarose plates at 37 °C.
# (§2) Bacteria were grown to an OD620 of 0.5, harvested by centrifugation, and washed with tris-glucose buffer (TG buffer: 10 mM tris, 5 mM glucose; pH = 7.4) (P. aeruginosa and S. aureus) or phosphate–glucose buffer (PG buffer: 10 mM K2HPO4, 5 mM glucose; pH = 7.4) (MRSA). Bacteria were adjusted to 2 × 10^6 colony forming units (CFU)/mL and were incubated in 1:2 dilutions for 2 h at 37 °C with CLEC3A-derived and modified CLEC3A-derived peptides in TG buffer or PG buffer. The known AMP LL-37 was used as a positive control, while the CLEC3A-derived peptides ST-16 (Ctrl 1) and DK-29 (Ctrl 2) and untreated bacteria were used as negative controls. The bacteria were then plated onto TSB–agarose plates in previously determined dilutions and cultured overnight at 37 °C. The number of grown colonies was determined with the ImageJ cell counter plugin and is presented as a percentage of the number of grown colonies from the untreated control. The minimal inhibitory concentration (MIC50) was defined as the concentration of antimicrobial peptide where only 50% of bacteria survived. Used peptide concentrations are provided in Supplementary Table S1.
# (§3) Statistical analysis of results was performed with Prism 9.3.1 (471) (GraphPad, San Diego, CA, USA). All tables and graphs show calculated averages and standard deviations obtained from three individual experiments. Bar charts of the MIC50 include numerical values with confidence intervals (95%) as the legend. Statistical significance was determined with a paired ANOVA test followed by a Dunnett test and multiple comparisons, comparing each peptide with the respective parent peptide HT-16, HT-47, or WRK-30 as indicated in the figure captions.
# [1] = tested on: NIH3T3 cells (murine fibroblasts); experiment: Cytotoxicity assay (MTS); type: cell-based
# Description: NIH3T3 cells (murine fibroblasts), obtained from Prof. Dr. Wielckens, were seeded and precultured overnight. For 24 h incubation with peptides, a density of 1 × 10^4 cells/well and for 96 h incubation with peptides a density of 5 × 10^3 cells/well was used. After preculturing, the culture medium was replaced and cells were incubated with a peptide-containing medium for 24 h and 96 h. Afterward, the peptide-containing medium was removed and cells were washed with PBS before adding CellTiter 96® AQueous One Solution (Promega, Madison, WI, USA) containing 3-(4,5-dimethylthiazol-2-yl)-5-(3-carboxymethoxyphenyl)-2-(4-sulfophenyl)-2H-tetrazolium (MTS) to the culture medium. Cells incubated with peptides for 24 h were incubated with MTS medium for 1 h at 37 °C, and absorbance was measured at 490 nm. Cells incubated with peptides for 96 h were incubated with MTS medium for 2 h at 37 °C before measuring the absorbance. Samples were measured in triplicates, and the cell viability of three individual experiments is presented as a percentage of the measured OD from the untreated control. As further controls, vancomycin (final concentration 7.35 µg/mL), colistin (final concentration 147 µg/mL), and 1% TritonX in culture medium were used. Used peptide concentrations are provided in Supplementary Table S2.
# P. aeruginosa = type: cell-based, Pseudomonas aeruginosa (Psae-27853); details: 2 h, pH 7.4
# Description: as §1, §2, §3
# S. aureus = type: cell-based, Staphylococcus aureus (ATCC-29213); details: 2 h, pH 7.4
# Description: as §1, §2, §3
# [2] = Biostability assay in murine serum; type: in vitro ADME, murine (C57BL6/N); details: 30 µM peptide, room temperature; for Time for which the peptide was detectable in murine serum: pooled murine serum (C57BL6/N), samples 5 min, 10 min, n = 3
# Description: The peptides (HT-47, WRK-30, and dWRK-30) were mixed with pooled murine serum, obtained from C57BL6/N wildtype mice via cardiac puncture immediately after death by cervical dislocation (the procedure was approved by the local government authority LANUV under permit no. UniKöln_Anzeige§4.22.001), to a final concentration of 30 µM. In parallel, a control with water and pooled murine serum was prepared. Both mixtures were incubated at room temperature, and samples were taken at the time points indicated in Supplementary Table S3. The samples were immediately added to a Novex Tricine SDS Sample Buffer containing a NuPage Sample Reducing Agent and incubated at 85 °C for 2 min. Boiled samples were stored at 4 °C. After the collection of all time points, samples were separated into 10–20% Tricine Gels. Gels with HT-47 and WRK-30 were subsequently transferred onto PVDF membranes (0.2 µm pore size) and immunoblot analysis with 1:200 dilutions of a custom-ordered and affinity-purified rabbit anti-WRK-30 (Eurogentec, Seraing, Belgium) antibody was performed. Gels with dWRK-30 were stained with Coomassie brilliant blue.
# [3] = tested on: gram-positive and gram-negative bacteria; details: cited from earlier work
# From the text: We assessed the antimicrobial activity of the modified CLEC3A-derived peptides using an antimicrobial activity assay and determined their MIC50 (Figure 2). We used the well-investigated AMP LL-37 as a positive control. As negative controls, we used ST-16 (Ex1z), which corresponds to HT-16 with an abolished positive charge, and DK-29 (Ex2), which is solely the amphipathic α-helix of HT-47 without the positive charge of the N-terminus. […] First, we investigated the antimicrobial activity of the peptides modified from HT-16: RK-9 and ...
# [4] = tested on: primary human cartilage cells; details: cited from earlier work
# [5] = HT-47: immunoblot (anti-WRK-30), 6 h, 8 h, dWRK-30: SDS-PAGE, Coomassie, 24 h, 96 h
Compound,P. aeruginosa MIC50 (P. aeruginosa),"MRSA MIC50 (MRSA; 2 h, pH 7.4)",S. aureus MIC50 (S. aureus),further results
"CC[C@H](C)[C@H](NC(=O)[C@H](CCCCN)NC(=O)[C@H](CCC(=O)O)NC(=O)[C@H](CCCCN)NC(=O)[C@H](CO)NC(=O)[C@H](CCCCN)NC(=O)[C@H](CCCNC(=N)N)NC(=O)[C@H](Cc1ccccc1)NC(=O)[C@H](Cc1ccccc1)NC(=O)[C@H](CC(=O)O)NC(=O)CNC(=O)[C@H](CC(C)C)NC(=O)[C@@H](N)CC(C)C)C(=O)NCC(=O)N[C@@H](CCCCN)C(=O)N[C@@H](CCC(=O)O)C(=O)N[C@@H](Cc1ccccc1)C(=O)N[C@@H](CCCCN)C(=O)N[C@@H](CCCNC(=N)N)C(=O)N[C@H](C(=O)N[C@H](C(=O)N[C@@H](CCC(N)=O)C(=O)N[C@@H](CCCNC(=N)N)C(=O)N[C@H](C(=O)N[C@@H](CCCCN)C(=O)N[C@@H](CC(=O)O)C(=O)N[C@@H](Cc1ccccc1)C(=O)N[C@@H](CC(C)C)C(=O)N[C@@H](CCCNC(=N)N)C(=O)N[C@@H](CC(N)=O)C(=O)N[C@@H](CC(C)C)C(=O)N[C@H](C(=O)N1CCC[C@H]1C(=O)N[C@@H](CCCNC(=N)N)C(=O)N[C@H](C(=O)N[C@@H](CCC(=O)O)C(=O)N[C@@H](CO)C(=O)O)[C@@H](C)O)C(C)C)[C@@H](C)CC)C(C)C)[C@@H](C)CC [LL-37, reference compound]",,,,"MRSA MIC50 (MRSA; Figure 2c series, 2 × 10^6 CFU/mL, 2 h at 37 °C in PG buffer pH 7.4, plating and colony count, n = 3, ± confidence interval (95%), na: not applicable): 2.40 ± 0.42 µM; MRSA MIC50 (MRSA; Figure 3c series, 2 × 10^6 CFU/mL, 2 h at 37 °C in PG buffer pH 7.4, n = 3, ± confidence interval (95%), na: not applicable): 2.63 ± 1.21 µM; MRSA MIC50 (MRSA; Figure 8c series, 2 × 10^6 CFU/mL, 2 h at 37 °C in PG buffer pH 7.4, n = 3, ± confidence interval (95%)): 0.52 ± 0.64 µM; Cytotoxicity to NIH3T3 cells, 24 h (in words) ([1]; Figure 5A, 0.3, 3 and 30 µM peptide, 24 h, MTS, absorbance 490 nm, % of untreated control, n = 3): cytotoxic effects"
CC[C@@H](C)[C@@H](NC(=O)[C@@H](CCC(=O)O)NC(=O)[C@@H](CCCCN)NC(=O)[C@@H](CC(C)C)NC(=O)[C@@H](C)NC(=O)[C@@H](CC(N)=O)NC(=O)[C@H](NC(=O)[C@@H](CCC(=O)O)NC(=O)[C@H](NC(=O)[C@@H](Cc1c[nH]c2ccccc12)NC(=O)[C@@H](CC(C)C)NC(=O)[C@@H](CCCCN)NC(=O)[C@@H](CCC(=O)O)NC(=O)[C@H](NC(=O)[C@@H](CCC(N)=O)NC(=O)[C@H](NC(=O)[C@@H](CCCCN)NC(=O)[C@@H](CC(C)C)NC(=O)CNC(=O)CNC(=O)CNC(=O)[C@@H](CCCNC(=N)N)NC(=O)[C@H](NC(=O)[C@@H](CCCNC(=N)N)NC(=O)[C@@H](CCCNC(=N)N)NC(=O)[C@@H](CCCCN)NC(=O)[C@@H](CO)NC(=O)[C@@H](Cc1c[nH]cn1)NC(=O)[C@@H](CCCCN)NC(=O)[C@@H](CCCNC(=N)N)NC(=O)[C@H](N)Cc1c[nH]c2ccccc12)C(C)C)[C@H](C)O)[C@H](C)CC)[C@H](C)O)C(C)C)C(=O)O [dWRK-30] (H-[dW][dR][dK][dH][dS][dK][dR][dR][dV][dR]GGG[dL][dK][dT][dQ][dI][dE][dK][dL][dW][dT][dE][dV][dN][dA][dL][dK][dE][dI]-OH),1.46 ± 1.55 µM,2.34 ± 0.39 µM,0.66 ± 0.36 µM,"Time for which the peptide was detectable in murine serum [2, 5]: up to 96 h"
"DKDGDLKTQIEKLWTEVNALKEIQALQTVCL [DK-29, negative control, solely the amphipathic α-helix of HT-47 without the positive charge of the N-terminus]",,,,Antimicrobial activity of negative control peptides (in words) [3]: Neither ST-16 nor DK-29 display any antimicrobial activity
HTSRLKARKHSKRRVR [HT-16],0.51 ± 0.11 µM,9.25 ± 6.25 µM,0.24 ± 0.13 µM,"Cytotoxicity towards murine fibroblasts, overall statement [1]: does not show any signs of cytotoxicity; Toxic effects to primary human cartilage cells [4]: no toxic effects"
HTSRLKARKHSKRRVRDKDGDLKTQIEKLWTEVNALKEIQALQTVCL [HT-47],,9.88 ± 2.43 µM,,"Toxic effects to primary human cartilage cells [4]: no toxic effects; Time for which the peptide was detectable in murine serum [2, 5]: up to 8 h; Detection in murine serum after 24 h (in words) ([2]; pooled murine serum, immunoblot, 24 h (not shown)): disappeared"
RKHSKRRVR [RK-9],4.17 ± 0.69 µM,,1.62 ± 2.67 µM,
RKHSKRRVRDKDGDLKTQIEKLWTEVNALKEI [RK-31],,,4.85 ± 3.10 µM,
RKHSKRRVRGGGLKTQIEKLWTEVNALKEI [RK-30],2.64 ± 1.79 µM,4.51 ± 3.81 µM,0.63 ± 0.68 µM,
"STSQLQAQQSSQQQVQ [ST-16, negative control, corresponds to HT-16 with abolished positive charge]",,,,Antimicrobial activity of negative control peptides (in words) [3]: Neither ST-16 nor DK-29 display any antimicrobial activity
WRKHSKRRVR [WRK-9],0.96 ± 0.46 µM,,0.56 ± 0.72 µM,
WRKHSKRRVRDKDGDLKTQIEKLWTEVNALKEI [WRK-31],,,1.03 ± 0.30 µM,
WRKHSKRRVRGGGLKTQIEKLWTEVNALKEI [WRK-30],,,,"Time for which the peptide was detectable in murine serum ([2]; immunoblot (anti-WRK-30), 30 min, 1 h): up to 30 min"
